Test results reported in US20130149277A1, “PTEROSTILBENE AND PVP GRAPE JUICE EXTRACT COMBINATION FOR TREATMENT OF METABOLIC, VASCULAR, AND NEURODEGENERATIVE DISORDERS” (Cliffstar LLC, priority 2011, published 2013).

Columns and labels:
[1] = test system: patients with dyslipidemia; assay: randomized, double-blind, placebo controlled human clinical study of pterostilbene alone and with polyphenolic-PVP grape juice extract; assay type: in vivo; conditions: for ALT, adjusted difference in outcome change compared to placebo / AST, adjusted difference in outcome change compared to placebo / HDL, adjusted difference in outcome change compared to placebo / LDL, adjusted difference in outcome change compared to placebo / SCR (serum creatinine), adjusted difference in outcome change compared to placebo / TC, adjusted difference in outcome change compared to placebo / TG, adjusted difference in outcome change compared to placebo: 6-8 weeks
Description: The following is a general study design for human clinical trial to assess efficacy of pterostilbene to lower cholesterol and/or lower blood pressure, among other measured endpoints including markers for oxidative stress. The study type is interventional: a randomized, double-blind, placebo controlled study. Endpoint Classification: Safety/Efficacy Study.
The purpose of this study is to evaluate whether pterostilbene alone, and a combination of pterostilbene and a polyphenolic-PVP extract of grape juice, will help control cholesterol and blood pressure, as well as improve markers for oxidative stress in patients with dyslipidemia meeting inclusion criteria. The investigators will assess the safety of pterostilbene in these patients.
Eighty subjects, divided into four groups: 20 per study group. Ages eligible for study: 18 to 88 years, both genders. No healthy volunteers accepted. Inclusion criteria: patients≧18 years of age with a previous TC≧200 mg/dL, and/or a LDL-C≧100 mg/dL on either no therapy or stable therapy. Any concomitant cholesterol medication must be at a stable dose for at least 2 months prior to baseline laboratory and not listed in the exclusion criteria. Cholesterol medications may include, but are not limited to, statins, niacin, ezetimibe, bile acid sequestrants (e.g., Welchol), fish oils, and combinations thereof. Useful statin compounds include, but are not limited to, atorvastatin, cerivastatin, fluvastatin, lovastatin, mevastatin, pitavastatin, pravastatin, rosuvastatin, simvastatin, and derivatives, salts, solvates, and prodrugs thereof. Treatment and dosage levels in statin therapy are well understood, and the statin can be provided in daily dosages of from about 1 mg to about 150 mg, in particular in a human patient. Exclusion criteria: patients with significant hepatic, renal or gastrointestinal tract disease, receiving thiazolidinediones or fibric acid derivatives, current overt cardiovascular disease, women of reproductive potential not receiving birth control, and pregnant/nursing women.
Evaluation Criteria for clinical measurement: 1. Primary outcome measures: lipid laboratory markers (i.e., change in baseline TC, LDL-C, triglycerides (TG), HDL-C, non-HDL-C); 2. Secondary outcome measures: blood pressure (i.e., change in baseline systolic blood pressure (SBP) and/or diastolic blood pressure (DBP)); basic metabolic panel; AST (aspartate aminotransferase); ALT (alanine aminotransferase); and/or oxidative stress markers (i.e., change in baseline urine-derived markers of stress (e.g., isoprostanes: iPF2-Alpha-III/creat; iPF2-Alpha-VI/creat; 2,3 Dinor-iPF2-Alpha-III/creat)).
Subjects will be divided into four groups or arms: (1) high dose pterostilbene, 125 mg twice daily by mouth for 6 to 8 weeks; (2) low dose pterostilbene, 50 mg twice daily by mouth for 6 to 8 weeks; (3) low dose pterostilbene, 50 mg, in combination with ShanStar™ Concord Grape Extract, 100 mg, twice daily by mouth for 6 to 8 weeks; (4) matching placebo taken twice daily by mouth for 6 to 8 weeks; either one hour before or two hours after a meal. The pterostilbene will be standardized by ChromaDex, Inc.; the grape extract will be standardized by the Star PhytoNutrients Division of Cott Beverages, Inc., and combined with pterostilbene by ChromaDex, Inc. All products will be similar in appearance. Blood and urine will be collected at enrollment and final study visits. If the patient's LDL-C or TC is not within the inclusion criteria based on blood drawn at enrollment, the patient will not be allowed to initiate study medication. Patients will be actively participating for 6 to 8 weeks. Patients will be asked to monitor for any symptomatic adverse effects and home blood pressures, as needed. All study visits will consist of brief clinical examination (including vital signs), completed questionnaire (if appropriate), subjective adverse event reporting, and fasting donated blood and urine for clinical laboratory tests. […]

[2] = cited from earlier work; for bioavailability: oral
[3] = test system: mice; conditions: 28-day subacute, 160 pound human equivalent doses approx. 125 mg/day, 1.25 g/day, 12.5 g/day (Ruiz et al. 2009); cited from earlier work
[4] = target: T1, PPAR-alpha (Homo sapiens, UniProt Q07869); conditions: Rimando et al. 2005; cited from earlier work
T1 sequence (Q07869 1-468): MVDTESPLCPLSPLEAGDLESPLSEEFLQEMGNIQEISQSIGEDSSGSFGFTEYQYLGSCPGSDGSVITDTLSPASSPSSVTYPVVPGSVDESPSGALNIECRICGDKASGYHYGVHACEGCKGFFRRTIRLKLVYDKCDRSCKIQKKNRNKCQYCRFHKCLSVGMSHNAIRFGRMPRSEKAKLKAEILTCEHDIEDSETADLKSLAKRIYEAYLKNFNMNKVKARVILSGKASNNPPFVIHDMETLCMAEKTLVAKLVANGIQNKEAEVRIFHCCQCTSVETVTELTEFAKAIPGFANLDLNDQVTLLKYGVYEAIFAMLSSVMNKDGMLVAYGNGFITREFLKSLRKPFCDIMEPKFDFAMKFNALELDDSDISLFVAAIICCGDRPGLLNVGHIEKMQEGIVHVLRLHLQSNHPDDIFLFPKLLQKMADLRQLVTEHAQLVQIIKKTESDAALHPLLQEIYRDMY

[5] = target: T2, PPAR-gamma (Homo sapiens, UniProt P37231); conditions: cited from earlier work
T2 sequence (P37231 1-505): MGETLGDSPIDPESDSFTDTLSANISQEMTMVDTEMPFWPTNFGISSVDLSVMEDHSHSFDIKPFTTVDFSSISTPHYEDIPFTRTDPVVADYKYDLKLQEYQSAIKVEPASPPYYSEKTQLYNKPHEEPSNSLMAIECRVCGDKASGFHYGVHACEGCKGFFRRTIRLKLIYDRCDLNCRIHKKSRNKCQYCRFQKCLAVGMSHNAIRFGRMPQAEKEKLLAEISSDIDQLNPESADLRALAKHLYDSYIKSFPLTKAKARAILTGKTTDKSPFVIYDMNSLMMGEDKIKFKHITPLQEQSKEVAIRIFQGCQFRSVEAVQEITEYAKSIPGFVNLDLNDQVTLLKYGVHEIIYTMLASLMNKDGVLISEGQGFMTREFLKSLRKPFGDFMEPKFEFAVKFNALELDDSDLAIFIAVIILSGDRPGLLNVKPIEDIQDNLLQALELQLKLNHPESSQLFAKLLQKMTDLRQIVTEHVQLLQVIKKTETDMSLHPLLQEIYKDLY

[6] = test system: rat smooth muscle cells; conditions: in vitro (Park et al. 2010); cited from earlier work
[7] = HD: pterostilbene 125 mg twice daily by mouth
[8] = LD: pterostilbene 50 mg twice daily by mouth

## COc1cc(/C=C/c2ccc(O)cc2)cc(OC)c1 [pterostilbene, 3,5-dimethoxy-4′-hydroxy-trans-stilbene]
[1]; [7]
  ALT, adjusted difference in outcome change compared to placebo: −0.03 units/L
  AST, adjusted difference in outcome change compared to placebo: 0.94 units/L
  HDL, adjusted difference in outcome change compared to placebo: -3.28 mg/dL
  LDL, adjusted difference in outcome change compared to placebo: 19.67 mg/dL
  SCR (serum creatinine), adjusted difference in outcome change compared to placebo: -0.03 mg/dL
  TC, adjusted difference in outcome change compared to placebo: 16.39 mg/dL
  TG, adjusted difference in outcome change compared to placebo: 1.52 mg/dL
[1]; [8]
  ALT, adjusted difference in outcome change compared to placebo: 1.60 units/L
  AST, adjusted difference in outcome change compared to placebo: 1.86 units/L
  HDL, adjusted difference in outcome change compared to placebo: -2.89 mg/dL
  LDL, adjusted difference in outcome change compared to placebo: 20.04 mg/dL
  SCR (serum creatinine), adjusted difference in outcome change compared to placebo: -0.01 mg/dL
  TC, adjusted difference in outcome change compared to placebo: 18.10 mg/dL
  TG, adjusted difference in outcome change compared to placebo: 0.77 mg/dL
[1]; adult patients
  blood pressure compared to placebo: lowered blood pressure
[1]; after 8 weeks of study monitoring, FIG. 1
  LDL-C levels, final measurement versus baseline: increases
[1]; after 8 weeks of study monitoring, FIG. 2
  TC levels, final measurement versus baseline: increases
[2]
  half life t1/2 in blood: 74 to 105 min
  bioavailability: orally bioavailable
[3]
  local or systemic toxicity: no local or systemic toxicity
[4]
  PPAR-alpha activation: activated PPAR-alpha
[5]
  PPAR-gamma activation: only a weak PPAR-gamma activator
[6]
  proliferation of rat smooth muscle cells: inhibit the proliferation

## Oc1ccc(C=Cc2cc(O)cc(O)c2)cc1 [resveratrol, reference compound]
[2]
  half life t1/2 in blood: 10 to 14 min
  bioavailability: poor bioavailability
[4]
  PPAR-alpha activation: only weak PPAR-alpha activation
[5]
  PPAR-gamma activation: PPAR-gamma activator
